Series [1] deals with T1, baculovirus-expressed ALK (Homo sapiens, UniProt Q9UM73).
T1 construct: host or cells: baculovirus expression system
Briefly: ALK Kinase Assay (ELISA/TRF). To be noted: 1 μM ATP (Km level). The class given is biochemical. The method, then: Briefly, each 96-well plate was coated with 100 μL/well of 10 μg/mL substrate (GST-PLC-γ) in Tris-buffered saline (TBS). […] The reaction was initiated by adding enzyme (30 ng/mL ALK) and was allowed to proceed at 37° C. for 15 minutes. Detection of the phosphorylated product was performed by adding 100 μL/well of Eu—N1 labeled PT66 antibody (Perkin Elmer #AD0041). […] Data analysis was performed using ActivityBase (IDBS, Guilford, UK). IC50 values were calculated by plotting percent inhibition versus log10 of the concentration of compound and fitting to the nonlinear regression sigmoidal dose-response (variable slope) equation in XLFit (IDBS, Guilford, UK).

For series [2], the target named is T2, human insulin receptor cytoplasmic domain (βIRCD) (Homo sapiens, UniProt P06213).
T2 construct: human insulin receptor cytoplasmic domain (βIRCD); host or cells: baculovirus expression system
T2 sequence (P06213 980-1382 limits assumed): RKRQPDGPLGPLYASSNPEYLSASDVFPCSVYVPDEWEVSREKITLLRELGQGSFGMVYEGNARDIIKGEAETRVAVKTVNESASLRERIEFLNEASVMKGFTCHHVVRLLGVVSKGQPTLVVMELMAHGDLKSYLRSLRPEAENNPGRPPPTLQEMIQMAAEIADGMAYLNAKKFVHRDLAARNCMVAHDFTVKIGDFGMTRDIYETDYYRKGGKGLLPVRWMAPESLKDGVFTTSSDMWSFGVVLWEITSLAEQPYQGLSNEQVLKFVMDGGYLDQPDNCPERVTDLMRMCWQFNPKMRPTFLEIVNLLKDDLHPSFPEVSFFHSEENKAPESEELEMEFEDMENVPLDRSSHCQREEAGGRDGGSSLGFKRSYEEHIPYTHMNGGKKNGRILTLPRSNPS
Briefly: Insulin Receptor Kinase Assay (TRF). In kind it is biochemical. To be noted: 20 μM ATP, read-out: IR IC50. The method, then: Example compounds were tested for their ability to inhibit the kinase activity of baculovirus-expressed human insulin receptor cytoplasmic domain (βIRCD) using the TRF assay as described above for ALK. Phosphorylation of the substrate, recombinant GST-PLC-γ, was detected with a europium-labeled anti-phosphotyrosine antibody and measured by TRF. Each 96-well plate (Greiner#655074) was coated with 100 μL/well of 20 μg/mL substrate solution in TBS. The IR assay mixture (total volume=100 μL/well) consisting of 20 mM HEPES (pH 7.2), 20 μM ATP, 5 mM MnCl2, 0.1% BSA, and test compound (diluted in DMSO; 2.5% DMSO final in assay) was added to the assay plates. Enzyme (20 ng/mL βIRCD) was added and the reaction was allowed to proceed at room temperature for 20 minutes. Detection of the phosphorylated product was performed by adding 100 μL/well of Eu—N1 labeled PY100 antibody (PerkinElmer#AD0160; diluted 1:10,000 in TBS-T containing 0.25% BSA). Incubation at 37° C. for 1 hour was followed by addition of 50 μL enhancement solution (Wallace#1244-105). Plates were agitated for 10 minutes and the fluorescence was measured using the PerkinElmer EnVision™ 2102 or 2104 multi-label plate reader.
(§1) Data analysis was performed using ActivityBase (IDBS, Guilford, UK). IC50 values were calculated by plotting percent inhibition versus log10 of the concentration of compound and fitting to the nonlinear regression sigmoidal dose-response (variable slope) equation in XLFit (IDBS, Guilford, UK).

In a further series the target is T3, recombinant human FAK (Homo sapiens, UniProt Q05397).
T3 construct: purchased Invitrogen PV3832; host or cells: baculovirus expression system
T3 sequence (Q05397 whole entry): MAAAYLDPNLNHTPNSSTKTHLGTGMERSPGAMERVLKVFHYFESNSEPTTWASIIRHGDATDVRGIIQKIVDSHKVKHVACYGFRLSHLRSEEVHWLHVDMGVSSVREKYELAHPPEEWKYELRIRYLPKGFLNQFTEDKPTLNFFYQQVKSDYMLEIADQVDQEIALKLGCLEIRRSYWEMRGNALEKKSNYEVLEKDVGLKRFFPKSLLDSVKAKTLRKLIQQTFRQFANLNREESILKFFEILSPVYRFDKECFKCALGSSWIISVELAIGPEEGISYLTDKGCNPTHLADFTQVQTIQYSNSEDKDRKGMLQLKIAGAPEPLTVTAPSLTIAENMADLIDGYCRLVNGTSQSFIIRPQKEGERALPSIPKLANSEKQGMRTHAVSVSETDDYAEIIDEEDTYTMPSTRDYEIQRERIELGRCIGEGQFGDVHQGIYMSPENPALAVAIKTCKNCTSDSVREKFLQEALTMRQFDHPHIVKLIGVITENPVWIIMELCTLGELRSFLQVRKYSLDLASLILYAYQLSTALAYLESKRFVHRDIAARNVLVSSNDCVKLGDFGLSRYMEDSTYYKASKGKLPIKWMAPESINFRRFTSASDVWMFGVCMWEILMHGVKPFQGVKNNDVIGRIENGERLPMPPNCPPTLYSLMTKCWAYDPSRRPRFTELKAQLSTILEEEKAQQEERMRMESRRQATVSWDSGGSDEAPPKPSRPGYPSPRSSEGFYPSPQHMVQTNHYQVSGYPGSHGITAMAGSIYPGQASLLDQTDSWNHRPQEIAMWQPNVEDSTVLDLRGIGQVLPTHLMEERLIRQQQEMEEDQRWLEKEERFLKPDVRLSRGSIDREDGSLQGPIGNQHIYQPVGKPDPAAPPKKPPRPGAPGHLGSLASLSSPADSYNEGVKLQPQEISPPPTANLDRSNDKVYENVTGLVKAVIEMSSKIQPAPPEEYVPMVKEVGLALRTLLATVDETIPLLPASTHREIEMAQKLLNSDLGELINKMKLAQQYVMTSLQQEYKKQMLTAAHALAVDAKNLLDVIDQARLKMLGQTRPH
Briefly: FAK Enzyme Assay (TRF detection). The class given is biochemical. To be noted: 10 μM ATP. The method, then: Example compounds were tested for their ability to inhibit the kinase activity of baculovirus-expressed recombinant human FAK using the TRF detection system as described above for JAK2. IC50 runs were performed in 96-well Costar high binding plates (#3922). The plates were coated first with 100 μL/well of 10 μg/mL neutravidin in TBS at 37° C. for 2 h, followed by 100 μL/well of 1 μg/mL 15-mer peptide substrate (biotinyl-amino-hexanoyl-EQEDEPEGDYFEWLE-amide) at 37° C. for another hour. The FAK assay mixture (total volume=100 μL/well) consisting of 20 mM HEPES, pH 7.2, 10 μM ATP, 5 mM MgCl2, 0.5 mM DTT, 0.1% BSA, and test compound (diluted in DMSO; 2.5% DMSO final in assay) was then added to the assay plate. Enzyme (10 ng/mL FAK, Invitrogen #PV3832) was added and the reaction was allowed to proceed at room temperature for 30 minutes. Detection of the phosphorylated product was performed by adding 100 μL/well of Eu—N1 labeled PY100 antibody (diluted 1:75000 in antibody dilution buffer). Samples were incubated at room temperature for 1 hour, followed by addition of 100 μL enhancement solution. Plates were agitated for 10 minutes and fluorescence of the resulting solution measured using the PerkinElmer EnVision™ 2102 (or 2104) multi-label plate reader.
as §1

In series [3] the target is T4, baculovirus-expressed JAK2 (Homo sapiens, UniProt O60674).
T4 construct: host or cells: baculovirus expression system
T4 sequence (O60674 whole entry): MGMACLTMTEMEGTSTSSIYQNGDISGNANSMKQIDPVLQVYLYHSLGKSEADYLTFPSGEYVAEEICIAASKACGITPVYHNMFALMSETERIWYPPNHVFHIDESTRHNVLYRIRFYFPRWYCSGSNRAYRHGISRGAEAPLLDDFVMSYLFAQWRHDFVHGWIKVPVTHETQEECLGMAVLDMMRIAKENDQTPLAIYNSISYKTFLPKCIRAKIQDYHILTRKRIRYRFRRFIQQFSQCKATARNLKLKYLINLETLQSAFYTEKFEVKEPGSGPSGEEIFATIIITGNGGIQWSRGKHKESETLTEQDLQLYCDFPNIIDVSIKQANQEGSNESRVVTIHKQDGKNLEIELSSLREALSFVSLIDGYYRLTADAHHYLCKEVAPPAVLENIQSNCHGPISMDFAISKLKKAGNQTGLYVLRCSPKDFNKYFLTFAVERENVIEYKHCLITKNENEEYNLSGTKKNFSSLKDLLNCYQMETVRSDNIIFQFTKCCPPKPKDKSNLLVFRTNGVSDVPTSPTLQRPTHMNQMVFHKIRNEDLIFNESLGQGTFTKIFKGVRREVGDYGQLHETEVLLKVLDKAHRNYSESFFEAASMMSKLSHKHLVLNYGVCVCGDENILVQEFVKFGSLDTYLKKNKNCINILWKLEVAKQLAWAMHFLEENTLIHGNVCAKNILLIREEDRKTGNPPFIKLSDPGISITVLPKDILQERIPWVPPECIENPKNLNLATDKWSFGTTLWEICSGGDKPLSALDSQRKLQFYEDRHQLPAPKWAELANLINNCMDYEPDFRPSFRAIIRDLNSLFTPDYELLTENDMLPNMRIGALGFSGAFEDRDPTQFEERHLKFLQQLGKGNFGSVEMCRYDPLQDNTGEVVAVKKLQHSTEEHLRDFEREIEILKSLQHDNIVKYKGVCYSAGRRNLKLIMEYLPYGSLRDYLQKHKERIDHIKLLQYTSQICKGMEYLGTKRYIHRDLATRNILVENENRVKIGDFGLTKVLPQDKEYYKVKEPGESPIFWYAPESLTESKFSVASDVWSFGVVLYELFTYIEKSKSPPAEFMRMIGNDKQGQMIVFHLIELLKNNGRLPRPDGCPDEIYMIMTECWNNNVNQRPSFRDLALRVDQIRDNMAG
Briefly: JAK2 Kinase Assay (TRF detection). To be noted: 0.2 μM ATP; average of two or more determinations; class symbols. The class given is biochemical. The protocol: Compounds were tested for their ability to inhibit the kinase activity of baculovirus-expressed JAK2 using the TRF detection system. IC50 runs were conducted in 96-well Costar high binding plates (Corning Costar #3922, Corning, N.Y.). The plates were coated first with 100 μL/well of 10 μg/mL Neutravidin (Pierce #31000, Rockford, Ill.) in TBS at 37° C. for 2 hours, followed by 100 μL/well of 1 μg/mL 15-mer peptide substrate (biotinyl-amino-hexanoyl-EQEDEPEGDYFEWLE-amide, Infinity Biotech Research and Resource, Aston, Pa.) at 37° C. for another hour. The JAK2 assay mixture (total volume=100 μL/well) consisting of 20 mM HEPES, pH 7.2, 0.2 μM ATP, 1 mM MnCl2, 0.1% BSA, and test compound (diluted in DMSO; 2.5% DMSO final in assay) was then added to the assay plate. Enzyme (15 ng/ml JAK2) was added and the reaction was allowed to proceed at room temperature for 20 minutes. Detection of the phosphorylated product was performed by adding 100 μL/well of Eu—N1 labeled PY100 antibody (PerkinElmer Life Sciences #AD0041, Boston, Mass.). Incubation at the room temperature then proceeded for 1 hour, followed by addition of 100 μl enhancement solution (PerkinElmer Life Sciences #1244-105, Boston, Mass.). The plate was gently agitated and after thirty minutes, the fluorescence of the resulting solution was measured using the PerkinElmer EnVision™ 2102 (or 2104) multi-label plate reader.
as §1

For series [4] the following is noted: cc_pd bond, CH3CN, 120.0 °C.
Where [5] appears, read: average of two or more determinations, class symbols.

Structures can show the parent of a compound that is named as a salt. Where two headings read alike, the source gives them in different places.

T1 sequence (Q9UM73 19-1620): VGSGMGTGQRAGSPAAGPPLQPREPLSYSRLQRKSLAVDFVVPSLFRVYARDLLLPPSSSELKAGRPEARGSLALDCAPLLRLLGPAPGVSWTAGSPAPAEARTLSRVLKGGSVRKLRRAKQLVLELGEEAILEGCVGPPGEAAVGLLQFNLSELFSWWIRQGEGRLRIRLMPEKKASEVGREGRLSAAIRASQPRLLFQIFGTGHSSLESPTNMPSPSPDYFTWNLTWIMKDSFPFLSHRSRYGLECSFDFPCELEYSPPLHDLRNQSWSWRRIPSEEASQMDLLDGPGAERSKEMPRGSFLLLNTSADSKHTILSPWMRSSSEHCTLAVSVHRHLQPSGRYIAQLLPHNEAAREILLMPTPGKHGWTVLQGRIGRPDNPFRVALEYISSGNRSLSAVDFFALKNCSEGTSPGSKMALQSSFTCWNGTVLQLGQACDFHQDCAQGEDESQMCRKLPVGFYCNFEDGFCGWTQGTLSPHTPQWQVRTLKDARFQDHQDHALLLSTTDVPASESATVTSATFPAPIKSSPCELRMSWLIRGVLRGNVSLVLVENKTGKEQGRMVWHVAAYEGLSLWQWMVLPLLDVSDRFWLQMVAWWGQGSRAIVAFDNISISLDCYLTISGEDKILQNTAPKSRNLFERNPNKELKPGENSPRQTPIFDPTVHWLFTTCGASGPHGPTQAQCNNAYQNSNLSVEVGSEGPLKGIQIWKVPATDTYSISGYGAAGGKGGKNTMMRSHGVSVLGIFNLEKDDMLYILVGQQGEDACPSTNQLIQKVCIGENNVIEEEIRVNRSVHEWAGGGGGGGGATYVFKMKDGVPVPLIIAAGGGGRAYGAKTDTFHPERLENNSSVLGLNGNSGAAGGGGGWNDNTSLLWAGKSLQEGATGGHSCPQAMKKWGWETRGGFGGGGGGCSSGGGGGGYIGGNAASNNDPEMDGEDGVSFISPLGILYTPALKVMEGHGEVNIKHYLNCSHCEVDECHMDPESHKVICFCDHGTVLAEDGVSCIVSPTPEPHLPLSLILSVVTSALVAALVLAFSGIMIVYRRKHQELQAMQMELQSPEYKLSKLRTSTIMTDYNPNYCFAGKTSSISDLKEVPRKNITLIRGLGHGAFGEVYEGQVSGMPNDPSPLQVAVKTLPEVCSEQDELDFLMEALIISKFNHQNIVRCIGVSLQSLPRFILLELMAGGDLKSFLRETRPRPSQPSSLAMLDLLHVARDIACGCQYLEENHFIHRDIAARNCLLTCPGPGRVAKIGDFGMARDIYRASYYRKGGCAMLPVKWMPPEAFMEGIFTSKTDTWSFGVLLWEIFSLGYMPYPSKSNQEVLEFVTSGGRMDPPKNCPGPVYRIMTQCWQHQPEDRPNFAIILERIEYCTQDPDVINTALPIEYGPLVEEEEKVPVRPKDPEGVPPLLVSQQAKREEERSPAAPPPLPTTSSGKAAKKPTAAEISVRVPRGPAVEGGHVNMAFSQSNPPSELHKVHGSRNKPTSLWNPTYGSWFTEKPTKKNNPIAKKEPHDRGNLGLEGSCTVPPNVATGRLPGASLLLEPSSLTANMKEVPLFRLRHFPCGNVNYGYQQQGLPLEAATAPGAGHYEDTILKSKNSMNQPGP

By IC50 is commonly meant the midpoint of a concentration-inhibition curve. Consider `COc1cc(C2CCNCC2)c2cc1Nc1ncc(Cl)c(n1)Nc1cc(ccc1N(C)S(C)(=O)=O)CC2` [Example 28, 6-Chloro-10-(2-methanesulfonyl-methyl-amino)-17-(piperidin-4-yl)-19-methoxy-2,4,8,22-tetraazatetracyclo[14.3.1.1^3,7.1^9,13]docosa-1(20),3(22),4,6,9(21),10,12,16,18-nonaene Trifluoroacetate (1:1)], for which the IC50 is under 10 nM in series [1] (setting [5]), 0.101 to 1 µM in series [2] (setting [5]), under 10 nM at recombinant human FAK (setting [5]) and 10 to 100 nM in series [3].
Regarding `COc1ccc2cc1Nc1nc(ncc1Cl)Nc1ccc(N3CCOCC3)c(c1)CC2` [Example 21, 6-Chloro-10-methoxy-17-(morpholin-4-yl)-2,4,8,22-tetraazatetracyclo[14.3.1.1^3,7.1^9,13]docosa-1(20),3(22),4,6,9(21),10,12,16,18-nonaene Trifluoroacetate (1:1)], the IC50 in series [1] (setting [5]) was over 10000 nM; in series [2] (setting [5]), over 10 µM; on recombinant human FAK (setting [5]), over 10000 nM; in series [3], under 10 nM.
Turning to `Clc1cnc2nc1Nc1cccc(c1)/C=C\c1cc(ccc1OCCN1CCCC1)N2` [Example 22, (14Z)-6-Chloro-17-[2-(pyrrolidin-1-yl)ethoxy]-2,4,8,22-tetraazatetracyclo[14.3.1.1^3,7.1^9,13]docosa-1(20),3(22),4,6,9(21),10,12,14,16,18-decaene], the IC50 was 101 to 1000 nM in series [1] (setting [5]), 1 to 10 µM in series [2] (setting [5]), 101 to 1000 nM on recombinant human FAK (setting [5]) and under 10 nM in series [3].
Regarding `CC(C)S(=O)(=O)c1ccc2cc1Nc1nc(ncc1Cl)Nc1ccc(N3CCN(C)CC3)c(c1)/C=C\2` [Example 11, (14Z)-6-Chloro-10-(propane-2-sulfonyl)-17-(4-methylpiperazin-1-yl)-2,4,8,22-tetraazatetracyclo[14.3.1.1^3,7.1^9,13]docosa-1(20),3(22),4,6,9(21),10,12,14,16,18-decaene Trifluoroacetate (1:1)], the IC50 is 10 to 100 nM in series [1] (setting [5]), 1 to 10 µM in series [2] (setting [5]), 10 to 100 nM on recombinant human FAK (setting [5]) and under 10 nM in series [3]. Besides, in series [4] (from C=Cc1cc(Nc2ncc(Cl)c(Nc3cc(Br)ccc3S(=O)(=O)C(C)C)n2)ccc1N1CCN(C)CC1, Pd(OAc)2 / P(o-tolyl)3 / Et3N, 65.0 mM, 2.0 h), the ring closure, yield of all isomers came out at 32%.
`COc1cc(N2CCN(C)CC2)c2cc1Nc1ncc(Cl)c(n1)Nc1cc(ccc1S(=O)(=O)C(C)C)/C=C\2`: the ring closure, yield of all isomers in series [4] (from C=Cc1ccc(S(=O)(=O)C(C)C)c(Nc2nc(Nc3cc(Br)c(N4CCN(C)CC4)cc3OC)ncc2Cl)c1, Pd(OAc)2 / tri-o-tolylphosphine, Et3N, 31.3 mM, 0.25 h) was 63%.
On to `Clc1cnc2nc1Nc1cccc(c1)CCc1cc(ccc1N1CCOCC1)N2` [Example 25, 6-Chloro-17-(morpholin-4-yl)-2,4,8,22-tetraazatetracyclo[14.3.1.1^3,7.1^9,13]docosa-1(20),3(22),4,6,9(21),10,12,16,18-nonaene], for which the IC50 in series [1] (setting [5]) was over 10000 nM; in series [2] (setting [5]), over 10 µM; at recombinant human FAK (setting [5]), over 10000 nM; in series [3], under 10 nM.
Regarding `COc1c2cc(c3c1CC[C@@H](N1CCOCC1)CC3)CCc1ccc(N(C)S(C)(=O)=O)c(c1)Nc1nc(ncc1Cl)N2` [Example 29, N-[(20S)-6-chloro-24-methoxy-20-(morpholin-4-yl)-2,4,8,27-tetraazapentacyclo[14.8.1.1^3,7.1^9,13.0^17,23]heptacosa-1(25),3(27),4,6,9(26),10,12,16,23-nonaen-10-yl]N-methylmethanesulfonamide], the IC50 in series [1] (setting [5]) was 10 to 100 nM; in series [2] (given as numeric bound), over 3 µM; on recombinant human FAK (setting [5]) it was 10 to 100 nM; in series [3], 101 to 1000 nM.
Take `Clc1cnc2nc1Nc1cccc(c1)/C=C\c1cc(ccc1N1CCOCC1)N2` [Example 24, (14Z)-6-Chloro-17-(morpholin-4-yl)-2,4,8,22-tetraazatetracyclo[14.3.1.1^3,7.1^9,13]docosa-1(20),3(22),4,6,9(21),10,12,14,16,18-decaene]: the IC50 in series [1] (given as numeric bound) is over 3000 nM; in series [2] (setting [5]) it was over 10 µM; at recombinant human FAK (setting [5]), over 10000 nM; in series [3] it was under 10 nM.
Consider `FC(F)(F)c1cnc2nc1Nc1cccc(c1)CCc1cccc(c1)N2` [Example 30, 6-Trifluoromethyl-2,4,8,22-tetraazatetracyclo[14.3.1.1^3,7.1^9,13]docosa-1(20),3(22),4,6,9(21),10,12,16,18-nonaene Trifluoroacetate (1:1)], for which the IC50 is over 3000 nM in series [1] (given as numeric bound), 1000 to 10000 nM at recombinant human FAK (setting [5]) and 101 to 1000 nM in series [3].
For the compound `CN1CCN(c2ccc3cc2/C=C\c2ccc(S(C)(=O)=O)c(c2)Nc2nc(ncc2Cl)N3)CC1` [Example 18, (14Z)-6-Chloro-10-(methanesulfonyl)-17-(4-methylpiperazin-1-yl)-2,4,8,22-tetraazatetracyclo[14.3.1.1^3,7.1^9,13]docosa-1(20),3(22),4,6,9(21),10,12,14,16,18-decaene Trifluoroacetate (1:1)], the IC50 was 101 to 1000 nM in series [1] (setting [5]), 10 to 100 nM at recombinant human FAK (setting [5]) and 10 to 100 nM in series [3].
Turning to `O[C@@H]1c2cccc(c2)Nc2nc(ncc2Cl)Nc2cccc(c2)[C@@H]1O` [Example 26, (14R,15S)-6-chloro-2,4,8,22-tetraazatetracyclo[14.3.1.1^3,7.1^9,13]docosa-1(20),3(22),4,6,9(21),10,12,16,18-nonaene-14,15-diol], the IC50 in series [1] (setting [5]) is 1000 to 10000 nM; in series [2] (given as numeric bound), over 3 µM; at recombinant human FAK (given as numeric bound), over 1000 nM; in series [3] it was under 10 nM.
`COc1cc(C2CCN(C)CC2)c2cc1Nc1ncc(Cl)c(n1)Nc1cc(ccc1N(C)S(C)(=O)=O)CC2` [Example 8, 6-Chloro-10-(2-methanesulfonyl-methyl-amino)-17-(1-methyl-piperidin-4-yl)-19-methoxy-2,4,8,22-tetraazatetracyclo[14.3.1.1^3,7.1^9,13]docosa-1(20),3(22),4,6,9(21),10,12,16,18-nonaene Trifluoroacetate (1:1)]: the IC50 was under 10 nM in series [1] (setting [5]), 0.101 to 1 µM in series [2] (setting [5]), under 10 nM at recombinant human FAK (setting [5]) and 101 to 1000 nM in series [3].

The values above are taken from US9487529B2, “Macrocyclic compounds as ALK, FAK and JAK2 inhibitors” (Cephalon, Inc., priority 2011, dated 2016).
